Results published in EP4635500A1, “THERAPEUTIC AGENT FOR BACTERIAL INFECTION” (Sumitomo Pharma Co., Ltd., priority 2022, dated 2024).
≈ marks a conversion by molar mass, not a printed value. Where two headings read alike, the source gives them in different places.

How the values were obtained:
P. aeruginosa = experiment: MIC, broth microdilution, CDC/FDA Antibiotic Resistance Isolate Bank (Example 7, Tables 10, 15); format: cell-based; conditions: for MIC: Pseudomonas aeruginosa, read-out: MIC
[1] = test system: Metallo-β-lactamase producing strains (N = 27); experiment: MIC50/MIC90 for carbapenemase-producing isolates (Example 5, Table 6); format: cell-based; conditions: metallo-β-lactamase-producing strains; combination: Compound A at a fixed concentration of 4 µg/mL; read-out: MIC90
[2] = 26 metallo-carbapenemase-producing P. aeruginosa strains, β-lactamase inhibitor µg/mL in parentheses
[3] = 96 strains of P. aeruginosa, β-lactamase inhibitor µg/mL in parentheses

CN(C)c1cc(NC(=O)CNC(C)(C)C)c(O)c2c1C[C@H]1C[C@H]3[C@H](N(C)C)C(O)=C(C(N)=O)C(=O)[C@@]3(O)C(O)=C1C2=O [Tigecycline, tigecycline]
MIC against 26 metallo-carbapenemase-producing strains MIC50 (P. aeruginosa; [2]): 4 µg(mL) | MIC against 26 metallo-carbapenemase-producing strains MIC90 (P. aeruginosa; [2]): 16 µg(mL) | MIC against 26 metallo-carbapenemase-producing strains MICrange (P. aeruginosa; [2]): 1 - 16 µg(mL) | MIC against 96 strains of P. aeruginosa MIC50 (P. aeruginosa; [3]): 4 µg(mL) | MIC against 96 strains of P. aeruginosa MIC90 (P. aeruginosa; [3]): 16 µg(mL) | MIC against 96 strains of P. aeruginosa MICrange (P. aeruginosa; [3]): 0.5 - 16 µg(mL) | MIC (P. aeruginosa; P. aeruginosa KUB No. 579, AR Bank # 447): 4 µg/mL (≈ 6.83 µM) | MIC (P. aeruginosa; P. aeruginosa KUB No. 5551, AR Bank # 54): 16 µg/mL (≈ 27.3 µM) | MIC (P. aeruginosa; P. aeruginosa KUB No. 5561, AR Bank # 64): 2 µg/mL (≈ 3.41 µM) | MIC (P. aeruginosa; P. aeruginosa KUB No. 5587, AR Bank # 90): 2 µg/mL (≈ 3.41 µM) | MIC (P. aeruginosa; P. aeruginosa KUB No. 5589, AR Bank # 92): 4 µg/mL (≈ 6.83 µM) | MIC (P. aeruginosa; P. aeruginosa KUB No. 5591, AR Bank # 94): 8 µg/mL (≈ 13.7 µM) | MIC (P. aeruginosa; P. aeruginosa KUB No. 5592, AR Bank # 95): 2 µg/mL (≈ 3.41 µM) | MIC (P. aeruginosa; P. aeruginosa KUB No. 5597, AR Bank # 100): 16 µg/mL (≈ 27.3 µM) | MIC (P. aeruginosa; P. aeruginosa KUB No. 5600, AR Bank # 103): 16 µg/mL (≈ 27.3 µM) | MIC (P. aeruginosa; P. aeruginosa KUB No. 5602, AR Bank # 105): 8 µg/mL (≈ 13.7 µM) | MIC (P. aeruginosa; P. aeruginosa KUB No. 5605, AR Bank # 108): 8 µg/mL (≈ 13.7 µM) | MIC (P. aeruginosa; P. aeruginosa KUB No. 5607, AR Bank # 110): 8 µg/mL (≈ 13.7 µM) | MIC (P. aeruginosa; P. aeruginosa KUB No. 5608, AR Bank # 111): 8 µg/mL (≈ 13.7 µM) | MIC (P. aeruginosa; P. aeruginosa KUB No. 5662, AR Bank # 229): 16 µg/mL (≈ 27.3 µM) | MIC (P. aeruginosa; P. aeruginosa KUB No. 5663, AR Bank # 230): 4 µg/mL (≈ 6.83 µM) | MIC (P. aeruginosa; P. aeruginosa KUB No. 5664, AR Bank # 231): 16 µg/mL (≈ 27.3 µM) | MIC (P. aeruginosa; P. aeruginosa KUB No. 5665, AR Bank # 232): 4 µg/mL (≈ 6.83 µM) | MIC (P. aeruginosa; P. aeruginosa KUB No. 5666, AR Bank # 23): 8 µg/mL (≈ 13.7 µM) | MIC (P. aeruginosa; P. aeruginosa KUB No. 5667, AR Bank # 234): 2 µg/mL (≈ 3.41 µM) | MIC (P. aeruginosa; P. aeruginosa KUB No. 5668, AR Bank # 235): 8 µg/mL (≈ 13.7 µM) | MIC (P. aeruginosa; P. aeruginosa KUB No. 5669, AR Bank # 236): 4 µg/mL (≈ 6.83 µM) | MIC (P. aeruginosa; P. aeruginosa KUB No. 5670, AR Bank # 237): 2 µg/mL (≈ 3.41 µM) | MIC (P. aeruginosa; P. aeruginosa KUB No. 5671, AR Bank # 238): 4 µg/mL (≈ 6.83 µM) | MIC (P. aeruginosa; P. aeruginosa KUB No. 5672, AR Bank # 239): 4 µg/mL (≈ 6.83 µM) | MIC (P. aeruginosa; P. aeruginosa KUB No. 5673, AR Bank # 240): 8 µg/mL (≈ 13.7 µM) | MIC (P. aeruginosa; P. aeruginosa KUB No. 5674, AR Bank # 241): 4 µg/mL (≈ 6.83 µM) | MIC (P. aeruginosa; P. aeruginosa KUB No. 5675, AR Bank # 242): 2 µg/mL (≈ 3.41 µM) | MIC (P. aeruginosa; P. aeruginosa KUB No. 5676, AR Bank # 243): 1 µg/mL (≈ 1.71 µM) | MIC (P. aeruginosa; P. aeruginosa KUB No. 5677, AR Bank # 244): 16 µg/mL (≈ 27.3 µM) | MIC (P. aeruginosa; P. aeruginosa KUB No. 5678, AR Bank # 245): 16 µg/mL (≈ 27.3 µM) | MIC (P. aeruginosa; P. aeruginosa KUB No. 5679, AR Bank # 246): 4 µg/mL (≈ 6.83 µM) | MIC (P. aeruginosa; P. aeruginosa KUB No. 5680, AR Bank # 247): 4 µg/mL (≈ 6.83 µM) | MIC (P. aeruginosa; P. aeruginosa KUB No. 5681, AR Bank # 248): 2 µg/mL (≈ 3.41 µM) | MIC (P. aeruginosa; P. aeruginosa KUB No. 5682, AR Bank # 249): 4 µg/mL (≈ 6.83 µM) | MIC (P. aeruginosa; P. aeruginosa KUB No. 5684, AR Bank # 251): 4 µg/mL (≈ 6.83 µM) | MIC (P. aeruginosa; P. aeruginosa KUB No. 5685, AR Bank # 252): 0.5 µg/mL (≈ 0.854 µM) | MIC (P. aeruginosa; P. aeruginosa KUB No. 5686, AR Bank # 253): 2 µg/mL (≈ 3.41 µM) | MIC (P. aeruginosa; P. aeruginosa KUB No. 5688, AR Bank # 255): 2 µg/mL (≈ 3.41 µM) | MIC (P. aeruginosa; P. aeruginosa KUB No. 5690, AR Bank # 257): 8 µg/mL (≈ 13.7 µM) | MIC (P. aeruginosa; P. aeruginosa KUB No. 5691, AR Bank # 258): 2 µg/mL (≈ 3.41 µM) | MIC (P. aeruginosa; P. aeruginosa KUB No. 5692, AR Bank # 259): 4 µg/mL (≈ 6.83 µM) | MIC (P. aeruginosa; P. aeruginosa KUB No. 5693, AR Bank # 260): 2 µg/mL (≈ 3.41 µM) | MIC (P. aeruginosa; P. aeruginosa KUB No. 5694, AR Bank # 261): 8 µg/mL (≈ 13.7 µM) | MIC (P. aeruginosa; P. aeruginosa KUB No. 5695, AR Bank # 262): 2 µg/mL (≈ 3.41 µM) | MIC (P. aeruginosa; P. aeruginosa KUB No. 5696, AR Bank # 263): 1 µg/mL (≈ 1.71 µM) | MIC (P. aeruginosa; P. aeruginosa KUB No. 5697, AR Bank # 264): 2 µg/mL (≈ 3.41 µM) | MIC (P. aeruginosa; P. aeruginosa KUB No. 5698, AR Bank # 265): 8 µg/mL (≈ 13.7 µM) | MIC (P. aeruginosa; P. aeruginosa KUB No. 5699, AR Bank # 266): 8 µg/mL (≈ 13.7 µM) | MIC (P. aeruginosa; P. aeruginosa KUB No. 5700, AR Bank # 267): 8 µg/mL (≈ 13.7 µM) | MIC (P. aeruginosa; P. aeruginosa KUB No. 5701, AR Bank # 268): 2 µg/mL (≈ 3.41 µM) | MIC (P. aeruginosa; P. aeruginosa KUB No. 5702, AR Bank # 269): 4 µg/mL (≈ 6.83 µM) | MIC (P. aeruginosa; P. aeruginosa KUB No. 5703, AR Bank # 270): 8 µg/mL (≈ 13.7 µM) | MIC (P. aeruginosa; P. aeruginosa KUB No. 5704, AR Bank # 271): 4 µg/mL (≈ 6.83 µM) | MIC (P. aeruginosa; P. aeruginosa KUB No. 5705, AR Bank # 272): 2 µg/mL (≈ 3.41 µM) | MIC (P. aeruginosa; P. aeruginosa KUB No. 5747, AR Bank # 351): 8 µg/mL (≈ 13.7 µM) | MIC (P. aeruginosa; P. aeruginosa KUB No. 5748, AR Bank # 352): 8 µg/mL (≈ 13.7 µM) | MIC (P. aeruginosa; P. aeruginosa KUB No. 5749, AR Bank # 353): 2 µg/mL (≈ 3.41 µM) | MIC (P. aeruginosa; P. aeruginosa KUB No. 5750, AR Bank # 354): 4 µg/mL (≈ 6.83 µM) | MIC (P. aeruginosa; P. aeruginosa KUB No. 5751, AR Bank # 355): 8 µg/mL (≈ 13.7 µM) | MIC (P. aeruginosa; P. aeruginosa KUB No. 5752, AR Bank # 356): 2 µg/mL (≈ 3.41 µM) | MIC (P. aeruginosa; P. aeruginosa KUB No. 5753, AR Bank # 357): 8 µg/mL (≈ 13.7 µM) | MIC (P. aeruginosa; P. aeruginosa KUB No. 5754, AR Bank # 358): 4 µg/mL (≈ 6.83 µM) | MIC (P. aeruginosa; P. aeruginosa KUB No. 5755, AR Bank # 359): 4 µg/mL (≈ 6.83 µM) | MIC (P. aeruginosa; P. aeruginosa KUB No. 5756, AR Bank # 360): 4 µg/mL (≈ 6.83 µM) | MIC (P. aeruginosa; P. aeruginosa KUB No. 5785, AR Bank # 439): 4 µg/mL (≈ 6.83 µM) | MIC (P. aeruginosa; P. aeruginosa KUB No. 5786, AR Bank # 440): 8 µg/mL (≈ 13.7 µM) | MIC (P. aeruginosa; P. aeruginosa KUB No. 5787, AR Bank # 441): 4 µg/mL (≈ 6.83 µM) | MIC (P. aeruginosa; P. aeruginosa KUB No. 5788, AR Bank # 443): 4 µg/mL (≈ 6.83 µM) | MIC (P. aeruginosa; P. aeruginosa KUB No. 5789, AR Bank # 444): 4 µg/mL (≈ 6.83 µM) | MIC (P. aeruginosa; P. aeruginosa KUB No. 5790, AR Bank # 445): 4 µg/mL (≈ 6.83 µM) | MIC (P. aeruginosa; P. aeruginosa KUB No. 5793, AR Bank # 449): 4 µg/mL (≈ 6.83 µM) | MIC (P. aeruginosa; P. aeruginosa KUB No. 5798, AR Bank # 455): 1 µg/mL (≈ 1.71 µM) | MIC (P. aeruginosa; P. aeruginosa KUB No. 5799, AR Bank # 456): 8 µg/mL (≈ 13.7 µM) | MIC (P. aeruginosa; P. aeruginosa KUB No. 5800, AR Bank # 457): 2 µg/mL (≈ 3.41 µM) | MIC (P. aeruginosa; P. aeruginosa KUB No. 5801, AR Bank # 458): 8 µg/mL (≈ 13.7 µM) | MIC (P. aeruginosa; P. aeruginosa KUB No. 5802, AR Bank # 459): 4 µg/mL (≈ 6.83 µM) | MIC (P. aeruginosa; P. aeruginosa KUB No. 5804, AR Bank # 862): 8 µg/mL (≈ 13.7 µM) | MIC (P. aeruginosa; P. aeruginosa KUB No. 5805, AR Bank # 863): 8 µg/mL (≈ 13.7 µM) | MIC (P. aeruginosa; P. aeruginosa KUB No. 5806, AR Bank # 864): 2 µg/mL (≈ 3.41 µM) | MIC (P. aeruginosa; P. aeruginosa KUB No. 5813, AR Bank # 508): 0.016 µg/mL (≈ 0.0273 µM) | MIC (P. aeruginosa; P. aeruginosa KUB No. 5814, AR Bank # 509): 0.008 µg/mL (≈ 0.0137 µM) | MIC (P. aeruginosa; P. aeruginosa KUB No. 5815, AR Bank # 510): 0.002 µg/mL (≈ 0.00341 µM) | MIC (P. aeruginosa; P. aeruginosa KUB No. 5816, AR Bank # 511): 0.004 µg/mL (≈ 0.00683 µM) | MIC (P. aeruginosa; P. aeruginosa KUB No. 5817, AR Bank # 512): 0.016 µg/mL (≈ 0.0273 µM) | MIC (P. aeruginosa; P. aeruginosa KUB No. 5818, AR Bank # 513): 0.008 µg/mL (≈ 0.0137 µM) | MIC (P. aeruginosa; P. aeruginosa KUB No. 5819, AR Bank # 514): 0.004 µg/mL (≈ 0.00683 µM) | MIC (P. aeruginosa; P. aeruginosa KUB No. 5820, AR Bank # 515): 0.008 µg/mL (≈ 0.0137 µM) | MIC (P. aeruginosa; P. aeruginosa KUB No. 5821, AR Bank # 516): 0.004 µg/mL (≈ 0.00683 µM) | MIC (P. aeruginosa; P. aeruginosa KUB No. 5823, AR Bank # 518): 0.016 µg/mL (≈ 0.0273 µM) | MIC (P. aeruginosa; P. aeruginosa KUB No. 5831, AR Bank # 526): 0.004 µg/mL (≈ 0.00683 µM) | MIC (P. aeruginosa; P. aeruginosa KUB No. 5832, AR Bank # 527): 0.002 µg/mL (≈ 0.00341 µM) | MIC (P. aeruginosa; P. aeruginosa KUB No. 5833, AR Bank # 528): 0.004 µg/mL (≈ 0.00683 µM) | MIC (P. aeruginosa; P. aeruginosa KUB No. 5834, AR Bank # 529): 0.004 µg/mL (≈ 0.00683 µM) | MIC90 [1]: 4 µg/mL
